Like-named read-outs stand apart in the source and are kept apart here.
Assays:
[1] = molecular target: T1, Adrenergic α2A (Homo sapiens, UniProt P08913); experiment: Radioligand displacement (Ricerca); assay type: binding
T1 construct: Ricerca (contract assay)

[2] = In vivo pharmacokinetic study, IP in mice; conditions: mouse, intraperitoneal 10 mg/kg
Description: In Vivo Pharmacokinetic Study. Compound(s) were formulated in 10% Tween80 in sterile water at the concentration of 3.33 mg/mL and administered IP to male C57 BL6 mice weighing 20 to 25 g (Harlan, Indianapolis, Ind.) at the dose of 10 mg/kg. The blood (cardiac puncture) and brain were collected at 0.5, 1, 3, and 6 hr. Animals were euthanized and decapitated, and the brains were removed, thoroughly washed in cold phosphate-buffered saline, and immediately frozen on dry ice. Plasma was separated by centrifugation (4000 rcf, 4° C.) and stored at −80° C. until analysis. On the day of analysis, frozen whole-[…] brains were weighed and diluted with 1:3 (w/w) parts of 70:30 isopropanol:water. The mixture was then subjected to mechanical homogenation employing a Mini-Beadbeater™ and 1.0 mm Zirconia/Silica Beads (BioSpec Products) followed by centrifugation. The sample extraction of plasma (20 μL) or brain homogenate (20 μL) was performed by a method based on protein precipitation using three volumes of ice-cold acetonitrile containing an internal standard (50 ng/mL carbamazepine). The samples were centrifuged (3000 rcf, 5 min) and supernatants transferred and diluted 1:1 (supernatant: water) into a new 96 well plate, which was then sealed in preparation for LC/MS/MS analysis.
LC/MS/MS Bioanalysis of Samples from In Vivo Studies. In vivo samples were analyzed via electrospray ionization (ESI) on an AB Sciex QTrap 5500 (Foster City, Calif.) triple-quadrupole linear ion trap instrument that was coupled with Shimadzu LC-20AD pumps (Columbia, Md.) and a Leap Technologies CTC PAL auto-sampler (Carrboro, N.C.). Analytes were separated by gradient elution using a Fortis C18 2.1×50 mm, 3 μm column (Fortis Technologies Ltd, Cheshire, UK) at 40° C. HPLC mobile phase A was 0.1% formic acid in water (pH unadjusted), mobile phase B was 0.1% formic acid in acetonitrile (pH unadjusted). […] The total run time was 2.5 min and the HPLC flow rate was 0.5 mL/min. The source temperature was set at 500° C. and mass spectral analyses were performed using multiple reaction monitoring (MRM), with transitions specific for each compound utilizing a Turbo-Ionspray® source in positive ionization mode (5.0 kV spray voltage). The calibration curves were constructed, and linear response was obtained in the range of 0.5 to 5,000 ng/mL, by spiking known amounts of […] in blank brain homogenate or plasma. All data were analyzed using AB Sciex Analyst software v1.5.1. The final PK parameters were calculated by noncompartmental analysis using Phoenix (version 6.2) (Pharsight Inc., Mountain View, Calif.).

[3] = molecular target: T2, Adrenergic α1D (Homo sapiens, UniProt P25100); experiment: Radioligand displacement (Ricerca); assay type: binding
T2 construct: Ricerca (contract assay)

[4] = molecular target: T3, Transporter, GABA (Rattus norvegicus, UniProt P23978); experiment: Radioligand displacement (Ricerca); assay type: binding
T3 construct: Ricerca (contract panel)

[5] = molecular target: T4, GABAB1A (Homo sapiens, UniProt Q9UBS5); experiment: Radioligand displacement (Ricerca); assay type: binding
T4 construct: Ricerca

[6] = system: Nicotinic acetylcholine; experiment: Radioligand displacement (Ricerca), first nicotinic entry; assay type: binding, human; conditions: 10 μM; first Nicotinic acetylcholine line

T2 sequence (P25100 whole entry): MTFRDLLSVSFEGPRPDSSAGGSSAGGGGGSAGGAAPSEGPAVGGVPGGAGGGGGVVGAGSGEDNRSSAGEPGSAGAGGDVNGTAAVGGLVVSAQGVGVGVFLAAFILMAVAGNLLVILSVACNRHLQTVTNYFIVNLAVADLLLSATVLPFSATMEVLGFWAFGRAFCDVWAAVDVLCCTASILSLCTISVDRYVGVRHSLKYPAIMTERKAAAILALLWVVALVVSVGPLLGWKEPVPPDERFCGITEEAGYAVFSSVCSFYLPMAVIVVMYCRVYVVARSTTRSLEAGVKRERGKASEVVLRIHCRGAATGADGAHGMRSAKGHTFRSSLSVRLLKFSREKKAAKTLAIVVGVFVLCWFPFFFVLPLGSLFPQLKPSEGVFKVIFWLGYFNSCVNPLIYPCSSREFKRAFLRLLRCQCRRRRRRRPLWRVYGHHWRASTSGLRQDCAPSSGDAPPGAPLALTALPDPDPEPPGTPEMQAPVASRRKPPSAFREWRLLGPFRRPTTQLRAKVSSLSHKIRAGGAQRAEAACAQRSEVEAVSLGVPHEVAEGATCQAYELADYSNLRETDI
T1 sequence (P08913 whole entry): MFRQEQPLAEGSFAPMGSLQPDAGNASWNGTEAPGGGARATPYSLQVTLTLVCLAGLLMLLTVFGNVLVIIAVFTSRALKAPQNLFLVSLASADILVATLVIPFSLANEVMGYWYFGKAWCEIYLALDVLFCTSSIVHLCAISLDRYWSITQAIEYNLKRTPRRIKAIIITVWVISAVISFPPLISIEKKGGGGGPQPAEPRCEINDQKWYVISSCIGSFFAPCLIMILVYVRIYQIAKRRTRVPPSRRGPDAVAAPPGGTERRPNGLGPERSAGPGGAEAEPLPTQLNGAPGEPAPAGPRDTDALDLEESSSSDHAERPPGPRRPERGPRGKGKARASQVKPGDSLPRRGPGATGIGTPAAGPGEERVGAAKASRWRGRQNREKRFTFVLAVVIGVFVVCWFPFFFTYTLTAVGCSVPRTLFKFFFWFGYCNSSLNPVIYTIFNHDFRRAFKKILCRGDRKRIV
T4 sequence (Q9UBS5 15-961 limits assumed): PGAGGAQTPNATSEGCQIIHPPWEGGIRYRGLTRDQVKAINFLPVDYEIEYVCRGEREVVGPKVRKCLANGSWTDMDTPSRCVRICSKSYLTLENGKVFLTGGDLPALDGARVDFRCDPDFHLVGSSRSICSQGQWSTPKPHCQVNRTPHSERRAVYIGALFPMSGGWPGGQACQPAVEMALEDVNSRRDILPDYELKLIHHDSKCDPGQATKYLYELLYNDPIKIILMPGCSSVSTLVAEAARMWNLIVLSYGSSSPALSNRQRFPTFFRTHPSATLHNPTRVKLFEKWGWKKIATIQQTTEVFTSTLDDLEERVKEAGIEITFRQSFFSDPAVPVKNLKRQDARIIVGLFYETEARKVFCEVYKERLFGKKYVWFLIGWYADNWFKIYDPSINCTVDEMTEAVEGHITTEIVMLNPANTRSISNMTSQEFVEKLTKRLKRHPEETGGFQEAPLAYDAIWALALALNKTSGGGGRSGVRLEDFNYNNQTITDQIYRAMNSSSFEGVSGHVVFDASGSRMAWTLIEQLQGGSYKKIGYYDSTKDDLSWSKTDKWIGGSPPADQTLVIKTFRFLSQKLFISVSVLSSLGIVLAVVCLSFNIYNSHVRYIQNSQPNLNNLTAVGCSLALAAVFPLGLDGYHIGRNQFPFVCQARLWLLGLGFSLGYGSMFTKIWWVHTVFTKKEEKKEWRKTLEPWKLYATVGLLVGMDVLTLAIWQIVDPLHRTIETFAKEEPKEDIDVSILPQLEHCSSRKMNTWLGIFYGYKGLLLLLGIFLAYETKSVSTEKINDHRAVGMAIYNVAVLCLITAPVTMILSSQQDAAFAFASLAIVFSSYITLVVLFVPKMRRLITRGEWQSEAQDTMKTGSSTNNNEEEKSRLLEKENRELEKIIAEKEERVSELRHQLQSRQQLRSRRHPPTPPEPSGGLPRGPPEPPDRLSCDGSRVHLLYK

Cc1cc(NC(=O)Nc2ccc(F)c(F)c2)n(-c2ccccc2)n1 [VU0456810, 1-(3,4-difluorophenyl)-3-(3-methyl-1-phenyl-1H-pyrazol-5-yl)urea]
inhibition at 10 µM [1]: 4% | Kp at 0.5 h ([2]; male, C57 BL6, brain/plasma, ip, 30 min after administration): 0.2 | concentration at 30 min ([2]; male, C57 BL6, brain, 30 min after administration, read-out: Brain concentration): 500 nM | half-life ([2]; male, C57 BL6, plasma, ip): 20 min | concentration at 30 min ([2]; male, C57 BL6, plasma, 30 min after administration, read-out: Plasma concentration): 2300 nM | Plasma concentration ([2]; 30 min after administration): 2300 nM | concentration at 30 min ([2]; 30 min after administration, read-out: Brain concentration): 500 nM | inhibition at 10 µM [3]: -3% | inhibition at 10 µM [4]: 5% | inhibition at 10 µM [5]: 11% | % Inhibition [6]: 0%

Source: patent US9067894B1, “Compound, composition, and method of activating GIRK potassium channel and use of same for treating conditions of interest” (Vanderbilt University, priority 2013, dated 2015)
